Assay results from PubChem BioAssay AID2060491 (Molecular Pharmacology Branch, DTP, NCI, 2025).

Tested on: 857933-349-R-J2-PDC complex spheroids, viability
Experiment: Anticancer human tumor 857933-349-R-J2-PDC patient-derived colon adenocarcinoma cell line growth inhibition [GQUAD]
Details: for IC50: curve of first compound; for viability, T/C: stronger effect = lower value
How it was run: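 Tumor cells were grown as complex spheroids with HUVEC endothelial cells and mesenchymal stem cells as stroma. G-quadruplex stabilizers were combined with targeted agents over half-log dilutions from near the clinical Cmax, or from 10 microM.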

[1] = second compound 0.0316 µM, first compound 0.0316 µM
[2] = second compound 0.0316 µM, first compound 0.1 µM
[3] = second compound 0.0316 µM, first compound 0.316 µM
[4] = second compound 0.0316 µM, first compound 1 µM
[5] = second compound 0.0316 µM, first compound 3.16 µM
[6] = second compound 0.0316 µM, first compound 10 µM
[7] = second compound 0.1 µM, first compound 0.0316 µM
[8] = second compound 0.1 µM, first compound 0.1 µM
[9] = second compound 0.1 µM, first compound 0.316 µM
[10] = second compound 0.1 µM, first compound 1 µM
[11] = second compound 0.1 µM, first compound 3.16 µM
[12] = second compound 0.1 µM, first compound 10 µM
[13] = second compound 0.316 µM, first compound 0.0316 µM
[14] = second compound 0.316 µM, first compound 0.1 µM
[15] = second compound 0.316 µM, first compound 0.316 µM
[16] = second compound 0.316 µM, first compound 1 µM
[17] = second compound 0.316 µM, first compound 3.16 µM
[18] = second compound 0.316 µM, first compound 10 µM
[19] = second compound 1 µM, first compound 0.0316 µM
[20] = second compound 1 µM, first compound 0.1 µM
[21] = second compound 1 µM, first compound 0.316 µM
[22] = second compound 1 µM, first compound 1 µM
[23] = second compound 1 µM, first compound 3.16 µM
[24] = second compound 1 µM, first compound 10 µM
[25] = second compound 3.16 µM, first compound 0.0316 µM
[26] = second compound 3.16 µM, first compound 0.1 µM
[27] = second compound 3.16 µM, first compound 0.316 µM
[28] = second compound 3.16 µM, first compound 1 µM
[29] = second compound 3.16 µM, first compound 3.16 µM
[30] = second compound 3.16 µM, first compound 10 µM
[31] = second compound 10 µM, first compound 0.0316 µM
[32] = second compound 10 µM, first compound 0.1 µM
[33] = second compound 10 µM, first compound 0.316 µM
[34] = second compound 10 µM, first compound 1 µM
[35] = second compound 10 µM, first compound 3.16 µM
[36] = second compound 10 µM, first compound 10 µM
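Also: spheroids exposed to compounds for one week before readout.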
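For viability, T/C in this document: percent viability relative to vehicle DMSO wells taken as 100%.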

COc1cc(C2c3cc4c(cc3C(OC3OC5COC(C)OC5C(O)C3O)C3COC(=O)C23)OCO4)cc(OC)c1O (centres undefined) + Cc1[nH]c2ccc(F)cc2c1-c1nc2c3cccnc3c3ncccc3c2[nH]1
IC50 (second compound 0.0316 µM): 935 nM | IC50 (second compound 0.1 µM): 962 nM | IC50 (second compound 0.316 µM): 1030 nM | IC50 (second compound 1 µM): 1410 nM | IC50 (second compound 3.16 µM): 964 nM | IC50 (second compound 10 µM): 980 nM | viability, T/C [1]: 84.8% | viability, T/C [2]: 62.7% | viability, T/C [3]: 58% | viability, T/C [4]: 53.8% | viability, T/C [5]: 42.1% | viability, T/C [6]: 24.6% | viability, T/C [7]: 86.5% | viability, T/C [8]: 73.6% | viability, T/C [9]: 50.9% | viability, T/C [10]: 59.4% | viability, T/C [11]: 38.8% | viability, T/C [12]: 24.9% | viability, T/C [13]: 88.9% | viability, T/C [14]: 69.8% | viability, T/C [15]: 55.9% | viability, T/C [16]: 59% | viability, T/C [17]: 38.9% | viability, T/C [18]: 25.4% | viability, T/C [19]: 81.4% | viability, T/C [20]: 71.8% | viability, T/C [21]: 50.7% | viability, T/C [22]: 63.1% | viability, T/C [23]: 44.6% | viability, T/C [24]: 23.5% | viability, T/C [25]: 94.9% | viability, T/C [26]: 65.3% | viability, T/C [27]: 47.6% | viability, T/C [28]: 56.2% | viability, T/C [29]: 45.4% | viability, T/C [30]: 24% | viability, T/C [31]: 90.7% | viability, T/C [32]: 69.5% | viability, T/C [33]: 49.8% | viability, T/C [34]: 56.5% | viability, T/C [35]: 50.7% | viability, T/C [36]: 27.7%

COc1cccc2c1C(=O)c1c(O)c3c(c(O)c1C2=O)CC(O)(C(=O)CO)CC3OC1CC(N)C(O)C(C)O1 (centres undefined) + Cc1[nH]c2ccc(F)cc2c1-c1nc2c3cccnc3c3ncccc3c2[nH]1
IC50 (second compound 0.0316 µM): 444 nM | IC50 (second compound 0.1 µM): 721 nM | IC50 (second compound 0.316 µM): 965 nM | IC50 (second compound 1 µM): 839 nM | IC50 (second compound 3.16 µM): 572 nM | IC50 (second compound 10 µM): 505 nM | viability, T/C [1]: 90.5% | viability, T/C [2]: 66% | viability, T/C [3]: 59.2% | viability, T/C [4]: 41.6% | viability, T/C [5]: 5.07% | viability, T/C [6]: 0.26% | viability, T/C [7]: 81.5% | viability, T/C [8]: 63.5% | viability, T/C [9]: 59.7% | viability, T/C [10]: 49.2% | viability, T/C [11]: 7.76% | viability, T/C [12]: 0.17% | viability, T/C [13]: 74.2% | viability, T/C [14]: 66.8% | viability, T/C [15]: 56.4% | viability, T/C [16]: 51% | viability, T/C [17]: 5.84% | viability, T/C [18]: 0.2% | viability, T/C [19]: 79.9% | viability, T/C [20]: 62.5% | viability, T/C [21]: 61.9% | viability, T/C [22]: 48.6% | viability, T/C [23]: 5.97% | viability, T/C [24]: 0.21% | viability, T/C [25]: 79.4% | viability, T/C [26]: 65.7% | viability, T/C [27]: 59.4% | viability, T/C [28]: 43.6% | viability, T/C [29]: 6.19% | viability, T/C [30]: 0.26% | viability, T/C [31]: 93% | viability, T/C [32]: 74.5% | viability, T/C [33]: 58.5% | viability, T/C [34]: 43.7% | viability, T/C [35]: 5.74% | viability, T/C [36]: 0.29%
